Source: patent publication US20100249145A1, “Inhibitors of VEGF Receptor and HGF Receptor Signaling” (Methylgene, Inc., priority 2005, published 2010)
pIC50: −log10 of the molar value.

Legend:
[1] = tested on: DU145; assay: DU145 scattering inhibition (HGF dependent scattering); format: cell-based; settings: Homo sapiens, DU-145, Table 31, read-out: DU145 scattering inhib IC50
Excerpt: (§1) HGF has well known activity in terms of inducing scattering and migration (wound healing) (Wells et al., Cell Motil Cytoskeleton. 2005 November 62(3):180-94; Miura et al., Urology 2001 December 58(6):1064-9; Nishimura et al., Int J. Urol. 1998 May 5(3):276-81; Wang et al., Mol Cancer Ther. 2003 November; 2(11):1085-92; and Christensen et al., Cancer Res. 2003 Nov. 1; 63(21):7345-55).

[2] = target: T1, recombinant human c-Met/HGF receptor (Homo sapiens, UniProt P08581); assay: In vitro receptor tyrosine kinase assay (DELFIA), c-Met/HGF receptor; format: biochemical; settings: Table 31; ATP 10 uM, enzyme 25 nM; read-out: CMet ic50
T1 construct: His tag (histidine tag from pBlueBacHis2A); made in house; host or cells: Hi-5 cells (Trichoplusia ni), recombinant baculovirus
T1 sequence (P08581 1078-1337): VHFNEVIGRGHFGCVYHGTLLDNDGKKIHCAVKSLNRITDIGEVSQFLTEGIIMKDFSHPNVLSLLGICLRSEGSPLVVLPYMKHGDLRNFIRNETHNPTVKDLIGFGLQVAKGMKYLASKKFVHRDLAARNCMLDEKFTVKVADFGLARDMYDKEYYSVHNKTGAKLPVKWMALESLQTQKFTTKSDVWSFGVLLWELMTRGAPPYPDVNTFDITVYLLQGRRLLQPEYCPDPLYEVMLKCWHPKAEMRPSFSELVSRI

[3] = target: T2, VEGF receptor KDR (Homo sapiens, UniProt P35968); assay: In vitro receptor tyrosine kinase assay (DELFIA), VEGF receptor KDR; format: biochemical; settings: Table 31; ATP 0.6 uM, enzyme 5 nM; read-out: VEGFR IC50
T2 construct: made in house; host or cells: Sf9 cells (Spodoptera frugiperda), recombinant baculovirus
T2 sequence (P35968 806-1356): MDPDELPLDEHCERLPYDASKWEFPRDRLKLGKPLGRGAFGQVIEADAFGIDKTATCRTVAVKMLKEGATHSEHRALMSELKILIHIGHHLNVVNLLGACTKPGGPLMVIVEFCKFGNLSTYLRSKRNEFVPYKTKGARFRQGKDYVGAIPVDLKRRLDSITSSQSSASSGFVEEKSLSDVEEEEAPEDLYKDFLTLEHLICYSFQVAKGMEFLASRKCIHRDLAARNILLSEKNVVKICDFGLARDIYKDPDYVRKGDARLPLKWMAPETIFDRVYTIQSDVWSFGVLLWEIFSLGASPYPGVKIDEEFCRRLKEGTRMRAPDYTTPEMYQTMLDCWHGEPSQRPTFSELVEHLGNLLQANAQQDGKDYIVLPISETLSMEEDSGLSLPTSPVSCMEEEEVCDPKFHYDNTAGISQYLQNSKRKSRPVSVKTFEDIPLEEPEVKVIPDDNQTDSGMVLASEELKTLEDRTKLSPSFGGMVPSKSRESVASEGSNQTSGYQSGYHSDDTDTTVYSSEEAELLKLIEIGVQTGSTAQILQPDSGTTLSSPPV
Excerpt: In Vitro Receptor Tyrosine Kinase Assays (c-Met/HGF receptor and VEGF Receptor KDR)
In the case of VEGF receptor KDR a 1.6-kb cDNA corresponding to the catalytic domain of VEGFR2 or KDR (Genbank accession number AF035121 amino acid 806 to 1356) was cloned into the Pst I site of the pDEST20 Gateway vector (Invitrogen) for the production of a GST-tagged version of that enzyme.
The GST-VEGFR2806-1356 protein was expressed in Sf9 cells (Spodoptera frugiperda) upon infection with recombinant baculovirus construct.
The supernatant was loaded onto a GST-agarose column (Sigma) equilibrated with PBS pH 7.3. Following a four column volume (CV) wash with PBS pH 7.3+1% Triton X-100 and 4 CV wash with buffer B (50 mM Tris pH 8.0, 20% glycerol and 100 mM NaCl), bound proteins were step eluted with 5 CV of buffer B supplemented with 5 mM DTT and 15 mM glutathion. […] Final GST-VEGFR2806-1356 protein preparations concentrations were about 0.7 mg/ml with purity approximating 70%.

[4] = tested on: A549; assay: A549 wound healing inhibition (HGF dependent migration); format: cell-based; settings: Homo sapiens, Table 31, read-out: A549 wound healing inbib IC50
Excerpt: as §1

[5] = tested on: A549; assay: In vivo solid tumor disease model, A549 xenograft; design: species or system female athymic CD 1 mice
[6] = tested on: U87 cells; assay: In vivo solid tumor disease model, U87 xenograft; design: species or system female athymic CD 1 mice; settings: U87MG; 100 mg/kg once daily PO; vehicle 5% DMSO - 1% Tween-80 in water; 14 days
Excerpt: In Vivo Solid Tumor Disease Model
This test measures the capacity of compounds to inhibit solid tumor growth.
Tumor xenografts were established in the flank of female athymic CD 1 mice (Charles River Inc.), by subcutaneous injection of 1×10^6U87, A431 or SKLMS cells/mouse. Once established, tumors were then serially passaged s.c. in nude mice hosts. Tumor fragments from these host animals were used in subsequent compound evaluation experiments. For compound evaluation experiments female nude mice weighing approximately 20 g were implanted s.c. by surgical implantation with tumor fragments of ˜30 mg from donor tumors. When the tumors were approximately 100 mm^3 in size (˜7-10 days following implantation), the animals were randomized a separated into treatment and control groups. Each group contained 6-8 tumor-bearing mice, each of which was ear-tagged and followed individually throughout the experiment
Mice were weighed and tumor measurements are taken by calipers three times weekly, starting on Day 1. These tumor measurements were converted to tumor volume by the well-known formula (L+W/4)^34/3π. The experiment was terminated when the control tumors reached a size of approximately 1500 mm^3. In this model, the change in mean tumor volume for a compound treated group/the change in mean tumor volume of the control group (non-treated or vehicle treated)×100 (ΔT/ΔC) was subtracted from 100 to give the percent tumor growth inhibition (% TGI) for each test compound. In addition to tumor volumes, body weight of animals were monitored twice weekly for up to 3 weeks.
Regiment of administration was once daily.

Row | SMILES | pIC50 [1] | pIC50 [2] | pIC50 [3] | pIC50 [4] | Tumor Growth Inhibition (%) ([5]; 30 mg/kg once daily IP, vehicle DMSO, 14 days) | Tumor Growth Inhibition (%) ([5]; 30 mg/kg once daily IP, vehicle DMSO, 12 days) | Tumor Growth Inhibition (%) [6] | Tumor Growth Inhibition (%) ([5]; 30 mg/kg once daily IP, vehicle DMSO, 10 days) | Tumor Growth Inhibition (%) ([5]; 75 mg/kg once daily PO, vehicle 5% DMSO - 1% Tween-80 in water, 10 days) | Tumor Growth Inhibition (%) ([5]; 40 mg/kg once daily p.o., 14 days)
1 | COc1ccccc1CC(=O)NC(=S)Nc1ccc(Oc2ccnc3cc(-c4cn(CC(N)=O)cn4)sc23)c(F)c1 | 5.30 to 6.00 | 6.60 to 7.30 | 6.60 to 7.30 | < 5.00 | – | – | – | – | – | –
2 | C#Cc1ccc(CC(=O)NC(=S)Nc2ccc(Oc3ccnc4cc(-c5nccn5C)sc34)c(F)c2)cc1 | < 5.00 | 6.60 to 7.30 | 6.60 to 7.30 | 5.30 to 6.00 | – | – | – | – | – | –
3 | C#Cc1ccccc1CC(=O)NC(=S)Nc1ccc(Oc2ccnc3cc(-c4cn(CCN5CCCC5)cn4)sc23)c(F)c1 | > 6.00 | > 7.30 | > 7.30 | > 6.00 | – | – | – | – | – | –
4 | C#Cc1ccccc1CC(=O)NC(=S)Nc1ccc(Oc2ccnc3cc(C4=CCN(C)CC4)sc23)c(F)c1 | > 6.00 | > 7.30 | 6.60 to 7.30 | > 6.00 | – | – | – | – | – | –
5 | C#Cc1ccc(CC(=O)NC(=S)Nc2ccc(Oc3ccnc4cc(-c5cn(CC)cn5)sc34)c(F)c2)cc1 | 5.30 to 6.00 | 6.60 to 7.30 | > 7.30 | 5.30 to 6.00 | – | – | – | – | – | –
6 | C#Cc1ccc(CC(=O)NC(=S)Nc2ccc(Oc3ccnc4cc(-c5ccc(CN(C)CCO)cc5)sc34)c(F)c2)cc1 | < 5.00 | 6.60 to 7.30 | > 7.30 | < 5.00 | – | – | – | – | – | –
7 | CCn1cnc(-c2cc3nccc(Oc4ccc(NC(=S)NC(=O)Cc5cccc(F)c5)cc4F)c3s2)c1 | > 6.00 | > 7.30 | > 7.30 | > 6.00 | – | – | – | – | – | –
8 | Cn1cnc(-c2cc3nccc(Oc4ccc(NC(=S)NC(=O)Cc5cccc(F)c5)cc4F)c3s2)c1 | > 6.00 | > 7.30 | 6.60 to 7.30 | > 6.00 | – | – | – | – | – | –
9 | O=C(Cc1ccccc1)NC(=S)Nc1ccc(Oc2ccnc3cc(C(=O)N4CC[C@H](O)C4)sc23)c(F)c1 [Example 39, (S)-N-(3-Fluoro-4-(2-(3-hydroxypyrrolidine-1-carbonyl)thieno[3,2-b]pyridin-7-yloxy)phenylcarbamothioyl)-2-phenylacetamide] | – | – | – | – | b (% TGI in the range of 50-74) | – | – | – | – | –
10 | O=C(Cc1ccccc1)NC(=S)Nc1ccc(Oc2ccnc3cc(-c4ccc(CN5CCOCC5)cc4)sc23)c(F)c1 [Example 56, 1-(3-Fluoro-4-(2-(4-(morpholinomethyl)phenyl)thieno[3,2-b]pyridin-7-yloxy)phenyl)-3-(2-phenylacetyl)thiourea] | – | – | – | – | – | c (% TGI in the range of 25-49) | – | – | – | –
11 | CCn1ccnc1-c1cc2nccc(Oc3ccc(NC(=S)NC(=O)Cc4ccccc4)cc3F)c2s1 [Example 73, N-(4-(2-(1-Ethyl-1H-imidadzol-2-yl)thieno[3,2-b]pyridin-7-yloxy)-3-fluorophenylcarbamothioyl)-2-phenylacetamide] | – | – | – | – | – | – | c (% TGI in the range of 25-49) | – | – | –
12 | Cn1cnc(-c2cc3nccc(Oc4ccc(NC(=S)NC(=O)Cc5ccccc5)cc4)c3s2)c1 [Example 201, N-(4-(2-(1-Methyl-1H-imidazol-4-yl)thieno[3,2-b]pyridin-7-yloxy)phenylcarbamothioyl)-2-phenylacetamide] | – | – | – | – | – | – | – | c (% TGI in the range of 25-49) | c (% TGI in the range of 25-49) | –
13 | Cn1cnc(-c2cc3nccc(Oc4ccc(NC(=S)NC(=O)Cc5ccc(F)cc5F)cc4F)c3s2)c1 [drawing 434] | > 6.00 | > 7.30 | > 7.30 | > 6.00 | – | – | – | – | – | –
14 | Cn1cnc(-c2cc3nccc(Oc4ccc(NC(=S)NC(=O)Cc5ccc(F)cc5)cc4F)c3s2)c1 [drawing 440] | > 6.00 | > 7.30 | > 7.30 | > 6.00 | – | – | – | – | – | –
15 | CCn1cnc(-c2cc3nccc(Oc4ccc(NC(=S)NC(=O)Cc5ccccc5C)cc4F)c3s2)c1 [drawing 441] | > 6.00 | > 7.30 | > 7.30 | > 6.00 | – | – | – | – | – | –
16 | C#Cc1ccccc1CC(=O)NC(=S)Nc1ccc(Oc2ccnc3cc(-c4cn(C)cn4)sc23)c(F)c1 [drawing 451] | > 6.00 | > 7.30 | > 7.30 | > 6.00 | – | – | – | – | – | –
17 | C#Cc1ccccc1CC(=O)NC(=S)Nc1ccc(Oc2ccnc3cc(-c4cn(CC)cn4)sc23)c(F)c1 [drawing 455] | > 6.00 | > 7.30 | > 7.30 | > 6.00 | – | – | – | – | – | –
18 | C#Cc1ccccc1CC(=O)NC(=S)Nc1ccc(Oc2ccnc3cc(-c4cn(CC)cn4)sc23)c(F)c1 [drawing 496] | – | – | – | – | – | – | – | – | – | b (% TGI in the range of 50-74)

The next lines start with results.

Row | pIC50 [1] | pIC50 [2] | pIC50 [3] | pIC50 [4] | SMILES | Tumor Growth Inhibition (%) ([5]; 30 mg/kg once daily IP, vehicle DMSO, 14 days) | Tumor Growth Inhibition (%) ([5]; 30 mg/kg once daily IP, vehicle DMSO, 12 days) | Tumor Growth Inhibition (%) [6] | Tumor Growth Inhibition (%) ([5]; 30 mg/kg once daily IP, vehicle DMSO, 10 days) | Tumor Growth Inhibition (%) ([5]; 75 mg/kg once daily PO, vehicle 5% DMSO - 1% Tween-80 in water, 10 days) | Tumor Growth Inhibition (%) ([5]; 40 mg/kg once daily p.o., 14 days)
19 | > 6.00 | > 7.30 | 6.30 to 6.60 | > 6.00 | CN1CC=C(c2cc3nccc(Oc4ccc(NC(=S)NC(=O)Cc5ccc(F)cc5)cc4F)c3s2)CC1 | – | – | – | – | – | –
20 | > 6.00 | > 7.30 | > 7.30 | > 6.00 | CCn1cnc(-c2cc3nccc(Oc4ccc(NC(=S)NC(=O)Cc5ccc(F)cc5)cc4F)c3s2)c1 | – | – | – | – | – | –
21 | > 6.00 | > 7.30 | > 7.30 | > 6.00 | O=C(Cc1ccccc1)NC(=S)Nc1ccc(Oc2ccnc3cc(-c4ccc(CN5CCCC5)cn4)sc23)c(F)c1 | – | – | – | – | – | –
22 | > 6.00 | > 7.30 | 6.60 to 7.30 | > 6.00 | CCn1ccnc1-c1cc2nccc(Oc3ccc(NC(=S)NC(=O)Cc4ccc(F)cc4F)cc3F)c2s1 | – | – | – | – | – | –
23 | > 6.00 | > 7.30 | > 7.30 | > 6.00 | Cn1ccnc1-c1cc2nccc(Oc3ccc(NC(=S)NC(=O)Cc4ccc(F)cc4F)cc3F)c2s1 | – | – | – | – | – | –
24 | > 6.00 | > 7.30 | > 7.30 | > 6.00 | CCn1ccnc1-c1cc2nccc(Oc3ccc(NC(=S)NC(=O)Cc4ccc(F)cc4)cc3F)c2s1 | – | – | – | – | – | –
25 | > 6.00 | > 7.30 | > 7.30 | > 6.00 | Cn1ccnc1-c1cc2nccc(Oc3ccc(NC(=S)NC(=O)Cc4ccc(F)cc4)cc3F)c2s1 | – | – | – | – | – | –
26 | > 6.00 | > 7.30 | > 7.30 | > 6.00 | Cc1ccccc1CC(=O)NC(=S)Nc1ccc(Oc2ccnc3cc(-c4nccn4C)sc23)c(F)c1 | – | – | – | – | – | –
27 | > 6.00 | > 7.30 | 6.30 to 6.60 | > 6.00 | Cc1ccccc1CC(=O)NC(=S)Nc1ccc(Oc2ccnc3cc(C4=CCN(C)CC4)sc23)c(F)c1 | – | – | – | – | – | –
28 | > 6.00 | > 7.30 | 6.60 to 7.30 | > 6.00 | O=C(Cc1ccccc1)NC(=S)Nc1ccc(Oc2ccnc3cc(-c4cccc[n+]4[O-])sc23)c(F)c1 | – | – | – | – | – | –
29 | > 6.00 | > 7.30 | > 7.30 | > 6.00 | CN1CCN(Cc2ccc(-c3cc4nccc(Oc5ccc(NC(=S)NC(=O)Cc6ccc(F)cc6)cc5F)c4s3)cc2)CC1 | – | – | – | – | – | –
30 | > 6.00 | > 7.30 | > 7.30 | > 6.00 | C#Cc1ccccc1CC(=O)NC(=S)Nc1ccc(Oc2ccnc3cc(-c4nccn4CC)sc23)c(F)c1 | – | – | – | – | – | –
31 | > 6.00 | > 7.30 | > 7.30 | > 6.00 | C#Cc1ccccc1CC(=O)NC(=S)Nc1ccc(Oc2ccnc3cc(-c4nccn4C)sc23)c(F)c1 | – | – | – | – | – | –
